Columns and labels:
[1] = test system: LNCaP tumor-transplanted mouse; experiment: Internal radioactivity distribution using LNCaP tumor-transplanted mouse; type: in vivo
Description: (§1) The animal test was performed in compliance with the guidelines of Kyoto University Animal Experiment Committee. Male CB17/IcrJcl-Prkdc^scid mice were purchased from CLEA Japan, Inc. The animals were kept under 12 h/12 h, day/night cycle conditions and fed ad libitum with food and water. LNCaP cells (1.0×10^7 cells/mouse) or PC-3 cells (1.0×10^7 cells/mouse) were suspended in a mixture of PBS and Matrigel manufactured by Corning Life Sciences (1:1, 150 μL) and the suspension was subcutaneously transplanted to the right shoulder of mice under isoflurane anesthesia. Thereafter, the mice were kept for 40 to 60 days.
LNCaP or PC-3 tumor-implanted mice were administered saline solutions (185 kBq, 100 μL) of [^111In]In-PSMA-DA1 or [^111In]In-PSMA-DB from the tail vein (n=3 each). Mice were euthanized 1, 4, 24, 48, 96, and 192 hours after administration. Thereafter, blood and each organ were recovered, and the mass and radioactivity of the organs were measured.
The percentage (% ID) of the radioactivity amount to the administered radioactivity amount (injected dose) is shown as the value (% ID/g) divided by the blood mass or the organ mass (g).
LNCaP tumor-implanted mice prepared by the same method as in Example 1-1 were administered a saline solution (241 kBq/100 μL) of [^111In]In-PtDA from the tail vein (n=3). Mice were euthanized 1, 24, and 48 hours after administration. Thereafter, blood and each organ were recovered, and the mass and radioactivity of the organs were measured.
LNCaP tumor-implanted mice prepared by the same method as in Example 1-1 were administered a saline solution (259 kBq/100 μL each) of each of the radiolabeled compounds in Examples 3-1 to 3-3 or Comparative Examples 2-1 to 2-2 from the tail vein (n=2 to 3). Mice were euthanized 1, 4, 24, 48, 96, and 192 hours after administration. Thereafter, blood and each organ were recovered, and the mass and radioactivity of the organs were measured.
as §1, with “LNCaP cells (4.3×10^6 cells/mouse) or” for “LNCaP cells (1.0×10^7 cells/mouse) or”, “PC-3 cells (3.3×10^6 cells/mouse) were” for “PC-3 cells (1.0×10^7 cells/mouse) were”, “shoulder of CB17/IcrJcl-Prkdc^scid mice under” for “shoulder of mice under”
Mice were euthanized 1, 4, 24, 48, 96, and 192 hours after administration. Thereafter, blood and each organ were recovered, and the mass and radioactivity of the organs were measured.
The results are shown in Table 12 (Mean value±standard deviation, n=3).

LNCaP tumor = experiment: SPECT/CT using LNCaP tumor-transplanted mouse; type: in vivo; details: 24 (and 48) hours after administration
Description: (§2) LNCaP tumor-implanted mice prepared by the method described above were administered saline solutions (1.9 to 3.0 MBq, 150 μL) of [^111In]In-PSMA-DA1 or [^111In]In-PSMA-DB from the tail vein. SPECT/CT was performed 24 and 48 hours after administration with FX3300 pre-clinical imaging system, which is manufactured by Gamma Medica-Ideas. Imaging was performed using a pinhole collimator with a diameter of 1.0 mm at a rotation radius of 35 mm, a projection time of 70 seconds, and the number of projections of 32 times under isoflurane anesthesia. After SPECT, CT (Tube voltage: 60 kV, Tube current: 350 μA) was performed. Image reconstruction was performed on the projection data of SPECT through three-dimensional ordered subset expectation maximization method (8 subsets, 5 iterations).
In the figure, the part indicated by the arrow is the location of the tumor, and the part indicated by the circle is the location of the kidney. The higher the SUV, the higher the radioactivity accumulation. […]
as §2, with “SPECT/CT” for “LNCaP tumor-implanted mice prepared by the method described above were administered saline solutions (1.9 to 3.0 MBq, 150 μL) of [^111In]In-PSMA-DA1 or [^111In]In-PSMA-DB from the tail vein. SPECT/CT”, “24, 48,” for “24”, “96” for “48”

Blood ([1]; 1 h after administration): 31.1 ± 3.99 % ID/g | Brain ([1]; 1 h after administration): 0.56 ± 0.06 % ID/g | Heart ([1]; 1 h after administration): 7.93 ± 2.10 % ID/g | Intestine ([1]; 1 h after administration): 2.63 ± 0.42 % ID/g | Kidney ([1]; 1 h after administration): 34.3 ± 7.79 % ID/g | LNCaP Tumor ([1]; 1 h after administration): 9.41 ± 2.30 % ID/g | Liver ([1]; 1 h after administration): 4.95 ± 0.27 % ID/g | Lung ([1]; 1 h after administration): 16.2 ± 3.86 % ID/g | Muscle ([1]; 1 h after administration): 2.02 ± 0.17 % ID/g | Pancreas ([1]; 1 h after administration): 3.34 ± 0.40 % ID/g | Spleen ([1]; 1 h after administration): 8.56 ± 2.90 % ID/g | Stomach (% ID) ([1]; 1 h after administration): 0.52 ± 0.02 % ID | Blood ([1]; 4 h after administration): 26.9 ± 9.56 % ID/g | Brain ([1]; 4 h after administration): 0.52 ± 0.15 % ID/g | Heart ([1]; 4 h after administration): 7.10 ± 1.82 % ID/g | Intestine ([1]; 4 h after administration): 3.17 ± 0.73 % ID/g | Kidney ([1]; 4 h after administration): 63.5 ± 13.9 % ID/g | LNCaP Tumor ([1]; 4 h after administration): 12.1 ± 4.04 % ID/g | Liver ([1]; 4 h after administration): 4.20 ± 1.51 % ID/g | Lung ([1]; 4 h after administration): 17.9 ± 6.62 % ID/g | Muscle ([1]; 4 h after administration): 2.15 ± 1.09 % ID/g | Pancreas ([1]; 4 h after administration): 2.48 ± 1.03 % ID/g | Spleen ([1]; 4 h after administration): 9.52 ± 4.28 % ID/g | Stomach (% ID) ([1]; 4 h after administration): 0.51 ± 0.05 % ID | Blood ([1]; 24 h after administration): 14.0 ± 3.27 % ID/g | Brain ([1]; 24 h after administration): 0.36 ± 0.11 % ID/g | Heart ([1]; 24 h after administration): 4.26 ± 0.89 % ID/g | Intestine ([1]; 24 h after administration): 1.53 ± 0.44 % ID/g | Kidney ([1]; 24 h after administration): 27.1 ± 9.25 % ID/g | LNCaP Tumor ([1]; 24 h after administration): 12.6 ± 2.15 % ID/g | Liver ([1]; 24 h after administration): 2.64 ± 0.38 % ID/g | Lung ([1]; 24 h after administration): 10.5 ± 2.58 % ID/g | Muscle ([1]; 24 h after administration): 1.38 ± 0.39 % ID/g | Pancreas ([1]; 24 h after administration): 2.12 ± 0.49 % ID/g | Spleen ([1]; 24 h after administration): 6.01 ± 2.33 % ID/g | Stomach (% ID) ([1]; 24 h after administration): 0.40 ± 0.09 % ID | retention in blood ([1]; 24 hours after administration): 14.000 % ID/g | Blood ([1]; 48 h after administration): 4.18 ± 0.56 % ID/g | Brain ([1]; 48 h after administration): 0.16 ± 0.01 % ID/g | Heart ([1]; 48 h after administration): 1.66 ± 0.23 % ID/g | Intestine ([1]; 48 h after administration): 0.96 ± 0.25 % ID/g | Kidney ([1]; 48 h after administration): 9.04 ± 2.70 % ID/g | LNCaP Tumor ([1]; 48 h after administration): 8.82 ± 1.26 % ID/g | Liver ([1]; 48 h after administration): 1.59 ± 0.14 % ID/g | Lung ([1]; 48 h after administration): 4.17 ± 0.26 % ID/g | Muscle ([1]; 48 h after administration): 0.54 ± 0.10 % ID/g | Pancreas ([1]; 48 h after administration): 1.06 ± 0.12 % ID/g | Spleen ([1]; 48 h after administration): 4.28 ± 0.79 % ID/g | Stomach (% ID) ([1]; 48 h after administration): 0.25 ± 0.05 % ID | tumor/kidney ratio ([1]; 48 hours after administration): exceeded 1 | Blood ([1]; 96 h after administration): 0.76 ± 0.58 % ID/g | Brain ([1]; 96 h after administration): 0.07 ± 0.03 % ID/g | Heart ([1]; 96 h after administration): 0.75 ± 0.33 % ID/g | Intestine ([1]; 96 h after administration): 0.75 ± 0.44 % ID/g | Kidney ([1]; 96 h after administration): 3.51 ± 2.54 % ID/g | LNCaP Tumor ([1]; 96 h after administration): 5.98 ± 1.87 % ID/g | Liver ([1]; 96 h after administration): 1.10 ± 0.27 % ID/g | Lung ([1]; 96 h after administration): 1.55 ± 0.86 % ID/g | Muscle ([1]; 96 h after administration): 0.23 ± 0.09 % ID/g | Pancreas ([1]; 96 h after administration): 0.64 ± 0.24 % ID/g | Spleen ([1]; 96 h after administration): 2.42 ± 1.54 % ID/g | Stomach (% ID) ([1]; 96 h after administration): 0.08 ± 0.03 % ID | Blood ([1]; 192 h after administration): 0.16 ± 0.03 % ID/g | Brain ([1]; 192 h after administration): 0.05 ± 0.01 % ID/g | Heart ([1]; 192 h after administration): 0.41 ± 0.08 % ID/g | Intestine ([1]; 192 h after administration): 0.12 ± 0.03 % ID/g | Kidney ([1]; 192 h after administration): 1.33 ± 0.42 % ID/g | LNCaP Tumor ([1]; 192 h after administration): 4.69 ± 1.32 % ID/g | Liver ([1]; 192 h after administration): 0.69 ± 0.12 % ID/g | Lung ([1]; 192 h after administration): 0.75 ± 0.22 % ID/g | Muscle ([1]; 192 h after administration): 0.15 ± 0.05 % ID/g | Pancreas ([1]; 192 h after administration): 0.46 ± 0.08 % ID/g | Spleen ([1]; 192 h after administration): 2.69 ± 0.83 % ID/g | Stomach (% ID) ([1]; 192 h after administration): 0.05 ± 0.01 % ID | radioactivity accumulation at the LNCaP tumor in SPECT/CT (LNCaP tumor): significant radioactivity accumulation | radioactivity accumulation at the kidney in SPECT/CT (LNCaP tumor): High radioactivity accumulation
SMILES: O=C([O-])CN1CCN(C(CCC(=O)NCCCC[C@H](NC(=O)N[C@@H](CCC(=O)O)C(=O)O)C(=O)O)C(=O)[O-])CCN(CC(=O)[O-])CCN(C(CCC(=O)N[C@@H](CCCCNC(=O)CCCc2ccc(I)cc2)C(=O)O)C(=O)[O-])CC1.[111In+3] (stereo partly shown) [[^111In]In-PSMA-DA1]

Reference: patent publication US20240174622A1, “COMPOUND AND RADIOACTIVE LABELING COMPOUND” (NIHON MEDI-PHYSICS CO., LTD., priority 2021, published 2024)
